Experimental findings from patent US8735412B2, “Sulfoximine-substituted anilinopyrimidine derivatives as CDK inhibitors, the production thereof, and use as medicine” (Bayer Intellectual Property GmbH, priority 2008, dated 2014) are described below.

Data set [1] concerns HeLa-MaTu human cervical carcinoma xenograft. Put plainly: HeLa-MaTu cervical tumor xenograft model on NMRI nude mice. It counts as in vivo. Particulars: oral, 2x daily on day 5, 6, 12, 13, 19, 20. The procedure:
HeLa-MaTu (EPO-GmbH, Berlin) human cervical carcinoma cells, which were grown in cell culture, were implanted subcutaneously in the flank of female NMRI nude mice. […] The study was terminated as soon as the tumors in one of the groups reached a size of approx. 150 mm^2.
(§1) The growth-inhibiting effect of the compounds was tested in the HeLa-MaTu cervical tumor model as xenograft on NMRI nude mice. […] Treatment of the established tumors was begun on day 4 after inoculation of the tumors.
as §1, §1
The study was designed for determining the initial response of a human cervical carcinoma xenograft model to treatments with the 5-Br comparative substance V12. The growth-inhibiting effect of the compounds was tested in the HeLa-MaTu cervical tumor model as xenograft on NMRI nude mice. V12 was dissolved completely in the solubilizer 40% polyethylene glycol 400 (PEG 400)/60% water to a final concentration of 0.7 mg/ml (group 2), 0.85 mg/ml (group 3), or 1.0 mg/ml (group 4). Treatment of the established tumors was begun on day 4 after inoculation of the tumors.
HeLa-MaTu (EPO-GmbH, Berlin) human cervical carcinoma cells, which were grown in cell culture, were implanted subcutaneously in the flank of female NMRI nude mice. […] The study was terminated as soon as the tumors in one of the groups reached a size of approx. 160 mm^2.
(§2) The growth-inhibiting effect of the compounds was tested in the HeLa-MaTu cervical tumor model as xenograft on NMRI nude mice. […] Treatment of the established tumors was begun on day 5 after inoculation of the tumors.
as §2, §2
The following test groups were used: • Group 1: Control, treatment with solubilizer (40% PEG 400/60% water) • Group 2: Compound according to WO 2005/037800 prepared according to preparation V14 disclosed above • (6 mg/kg, oral, 2x daily on day 5, 6, 12, 13, 19, 20) • Group 3: Compound according to WO 2005/037800 prepared according to preparation V14 disclosed above • (8 mg/kg, oral, 2× daily on day 5, 6, 12, 13, 19, 20) • Group 4: Compound according to WO 2005/037800 prepared according to preparation V14 disclosed above • (10 mg/kg, oral, 2× daily on day 5, 6, 12, 13, 19, 20)
The study was designed for determining the initial response of a human cervical carcinoma xenograft model to treatments with the 5-Br comparative substance V14. The growth-inhibiting effect of the compounds was tested in the HeLa-MaTu cervical tumor model as xenograft on NMRI nude mice. V14 was dissolved completely in the solubilizer 40% polyethylene glycol 400 (PEG 400)/60% water to a final concentration of 0.6 mg/ml (group 2), 0.8 mg/ml (group 3), or 1.0 mg/ml (group 4). Treatment of the established tumors was begun on day 5 after inoculation of the tumors.

Data set [2] has as its target T1, VEGF receptor tyrosine kinase-2 (Homo sapiens, UniProt P35968).
T1 construct: GST; made in house; host or cells: baculovirus-infected insect cells (Sf9)
Put plainly: VEGF receptor-2 kinase assay (Assay 3). In kind it is biochemical. The following applies: 8 μM ATP, poly-(Glu4Tyr) substrate; read-out: VEGF-R2 (Assay 3) Concentration for 50% inhibition of enzyme activity, IC50. The protocol: 10.3 Assay 3: VEGF Receptor-2 Kinase Assay
Recombinant VEGF receptor tyrosine kinase-2 was purified as GST fusion protein from baculovirus-infected insect cells (Sf9). Poly-(Glu4Tyr), used as kinase substrate, was purchased from the company Sigma.
VEGF receptor tyrosine kinase (90 ng/measuring point) was incubated for 10 min at 22° C. in the presence of various concentrations of test substances (0 μM, and within the range 0.001-30 μM) in 30 μl assay buffer [40 mM Tris/HCl pH5.5, 10 mM MgCl2, 1 mM MnCl2, 3 μM Na ortho-vanadate, 1.0 mM dithiothreitol, 8 μM adenosine triphosphate (ATP), 0.96 μg/measuring point poly-(Glu4Tyr), 0.2 μCi/measuring point ^33P-gamma ATP, 1.4% dimethylsulfoxide]. The reaction was stopped by adding EDTA solution (250 mM, pH8.0, 15 μl/measuring point).
(§3) From each reaction mixture, 15 μl was applied to P30 filter strips (from Wallac), and unincorporated ^33P-ATP was removed by washing the filter strips three times, for 10 min each time, in 0.5% phosphoric acid. After drying the filter strips for 1 hour at 70° C., the filter strips were covered with scintillator strips (MeltiLex™ A, from Wallac) and stoved for 1 hour at 90° C. The amount of incorporated ^33P (substrate phosphorylation) was determined by scintillation measurement in a gamma-radiation measuring instrument (Wallac). The measured data were standardized to 0% inhibition (enzyme reaction without inhibitor) and 100% inhibition (all assay components except enzyme). The IC50 values were determined by means of a 4-parameter fit using the company's own software.

The next data set has as its target T2, CDK1/CycB (Homo sapiens, UniProt P06493).
T2 construct: purchased ProQinase GmbH, Freiburg; host or cells: baculovirus-infected insect cells (Sf9)
Put plainly: CDK1/CycB kinase assay (Assay 1). It counts as biochemical. The following applies: 0.5 μM ATP, histon IIIS substrate; read-out: CDK1/CycB (Assay 1) Concentration for 50% inhibition of enzyme activity, IC50. The protocol:
10.1 Assay 1: CDK1/CycB Kinase Assay
Recombinant CDK1 and CycB-GST fusion proteins, purified from baculovirus-infected insect cells (Sf9), were purchased from ProQinase GmbH, Freiburg. The histon IIIS used as kinase substrate is commercially available from the company Sigma.
CDK1/CycB (200 ng/measuring point) was incubated for 10 min at 22° C. in the presence of various concentrations of test substances (0 μM, and within the range 0.01-100 μM) in assay buffer [50 mM Tris/HCl pH8.0, 10 mM MgCl2, 0.1 mM Na ortho-vanadate, 1.0 mM dithiothreitol, 0.5 μM adenosine triphosphate (ATP), 10 μg/measuring point histon IIIS, 0.2 μCi/measuring point ^33P-gamma ATP, 0.05% NP40, 1.25% dimethylsulfoxide]. The reaction was stopped by adding EDTA solution (250 mM, pH8.0, 15 μl/measuring point).
as §3

In data set [3] the test system is HeLa-MaTu cervical carcinoma cells. Put plainly: Proliferation assay (Assay 4), crystal violet staining. It counts as cell-based. Particulars: Homo sapiens, 96 h, 4 days incubation; read-out: HeLa-MaTu (Assay 4) Concentration for 50% inhibition of cellular proliferation, IC50. The protocol:
10.4 Assay 4: Proliferation Assay
Cultivated human HeLa-MaTu cervical carcinoma cells (obtained from EPO-GmbH, Berlin) were plated at a density of 3000 cells/measuring point in a 96-well multititer is plate in 200 μl of growth medium (DMEM/HAMS F12, 2 mM L-glutamine, 10% fetal calf serum). After 24 hours the cells of one plate (zero-point plate) were stained with crystal violet (see below), whereas the medium of the other plates was replaced with fresh culture medium (200 μl), to which the test substances had been added at various concentrations (0 μM, and in the range 0.01-30 μM; the final concentration of the solvent dimethylsulfoxide was 0.5%). The cells were incubated for 4 days in the presence of the test substances. Cellular proliferation was determined by staining the cells with crystal violet: the cells were fixed by adding 20 μl/measuring point of an 11% glutaraldehyde solution for 15 min at room temperature. After washing the fixed cells with water three times, the plates were dried at room temperature. The cells were stained by adding 100 μl/measuring point of a 0.1% crystal violet solution (pH adjusted to pH3 by adding acetic acid). After washing the stained cells with water three times, the plates were dried at room temperature. The dye was dissolved by adding 100 μl/measuring point of a 10% acetic acid solution. The extinction was determined photometrically at a wavelength of 595 nm. The percentage change in cell growth was calculated by standardization of the measured values to the extinction values of the zero-point plate (=0%) and the extinction of the untreated (0 μM) cells (=100%). The measured data were standardized to 0% inhibition (cell proliferation without inhibitor) and 100% inhibition (zero-point plate). The IC50 values were determined by means of a 4-parameter fit using the company's own software.

T1 sequence (P35968 20-1356): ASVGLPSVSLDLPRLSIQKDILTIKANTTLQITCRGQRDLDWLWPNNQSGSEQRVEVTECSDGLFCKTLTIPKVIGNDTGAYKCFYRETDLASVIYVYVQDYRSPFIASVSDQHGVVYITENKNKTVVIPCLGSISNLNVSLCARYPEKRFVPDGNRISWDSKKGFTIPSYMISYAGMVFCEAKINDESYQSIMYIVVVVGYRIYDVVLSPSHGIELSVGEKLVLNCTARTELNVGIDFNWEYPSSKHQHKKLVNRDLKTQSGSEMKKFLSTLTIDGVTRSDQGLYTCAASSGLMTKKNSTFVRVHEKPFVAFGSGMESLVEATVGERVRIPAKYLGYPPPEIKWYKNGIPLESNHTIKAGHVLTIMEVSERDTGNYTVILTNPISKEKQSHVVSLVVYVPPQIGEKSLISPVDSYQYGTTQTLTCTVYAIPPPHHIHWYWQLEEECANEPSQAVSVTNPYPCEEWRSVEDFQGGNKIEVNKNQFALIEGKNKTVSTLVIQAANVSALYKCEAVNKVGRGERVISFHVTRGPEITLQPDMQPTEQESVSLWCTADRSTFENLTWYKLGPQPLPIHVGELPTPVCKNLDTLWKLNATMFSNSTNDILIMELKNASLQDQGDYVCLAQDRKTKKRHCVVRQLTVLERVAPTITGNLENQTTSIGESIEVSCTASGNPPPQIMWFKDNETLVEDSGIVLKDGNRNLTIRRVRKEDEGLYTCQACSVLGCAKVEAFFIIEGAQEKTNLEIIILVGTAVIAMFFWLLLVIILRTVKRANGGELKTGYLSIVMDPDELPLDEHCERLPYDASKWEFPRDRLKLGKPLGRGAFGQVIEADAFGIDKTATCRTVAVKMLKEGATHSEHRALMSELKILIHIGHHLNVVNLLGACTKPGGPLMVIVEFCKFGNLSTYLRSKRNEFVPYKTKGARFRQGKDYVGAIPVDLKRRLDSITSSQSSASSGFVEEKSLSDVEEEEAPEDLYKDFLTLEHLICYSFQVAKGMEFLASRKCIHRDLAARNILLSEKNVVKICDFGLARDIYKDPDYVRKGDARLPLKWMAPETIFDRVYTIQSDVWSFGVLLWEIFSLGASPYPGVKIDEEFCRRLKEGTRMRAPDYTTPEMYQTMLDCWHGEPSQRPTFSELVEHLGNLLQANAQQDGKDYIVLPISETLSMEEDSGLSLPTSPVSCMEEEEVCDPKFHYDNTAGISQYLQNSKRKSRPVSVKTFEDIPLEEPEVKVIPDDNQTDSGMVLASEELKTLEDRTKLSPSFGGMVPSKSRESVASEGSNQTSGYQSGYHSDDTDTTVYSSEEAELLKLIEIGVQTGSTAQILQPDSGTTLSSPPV
T2 sequence (P06493 whole entry): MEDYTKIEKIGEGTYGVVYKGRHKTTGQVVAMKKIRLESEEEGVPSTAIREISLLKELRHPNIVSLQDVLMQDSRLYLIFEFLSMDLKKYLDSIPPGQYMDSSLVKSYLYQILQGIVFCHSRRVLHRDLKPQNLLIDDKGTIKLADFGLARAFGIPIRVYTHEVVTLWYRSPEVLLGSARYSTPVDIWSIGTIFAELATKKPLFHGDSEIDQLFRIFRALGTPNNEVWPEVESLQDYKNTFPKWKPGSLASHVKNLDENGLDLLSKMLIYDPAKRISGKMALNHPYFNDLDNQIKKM
T2 sequence (P14635 whole entry partner): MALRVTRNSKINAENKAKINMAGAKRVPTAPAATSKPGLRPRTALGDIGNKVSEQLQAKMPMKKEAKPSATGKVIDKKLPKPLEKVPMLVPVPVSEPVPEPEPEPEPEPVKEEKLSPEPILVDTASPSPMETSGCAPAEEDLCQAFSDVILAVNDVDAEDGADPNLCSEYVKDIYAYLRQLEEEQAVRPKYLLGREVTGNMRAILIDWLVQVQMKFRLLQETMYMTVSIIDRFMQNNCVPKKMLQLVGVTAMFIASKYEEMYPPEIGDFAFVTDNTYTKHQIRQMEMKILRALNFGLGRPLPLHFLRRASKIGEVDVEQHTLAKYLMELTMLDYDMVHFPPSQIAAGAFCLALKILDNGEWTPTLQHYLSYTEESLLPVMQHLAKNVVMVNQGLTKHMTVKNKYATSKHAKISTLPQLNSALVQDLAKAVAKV

`C[C@@H](O)[C@@H](C)Oc1nc(Nc2ccc(S(C)(=N)=O)cc2)ncc1Br` (stereo partly shown) [Example V13]: the “reduction of tumor weight at the end of the study to % of the control group” value in data set [1] (10 mg/kg (group 4), day 20) amounted to 23%. Besides, the “tolerability of the cyclic treatment regimen” value in data set [1] (10 mg/kg) is recorded as “well-tolerated”. Moreover, in data set [1] (6, 8, 10 mg/kg), the “effect on tumor growth (in words)” value is reported as “dose-dependent inhibition of tumor growth”. In addition, in data set [1] (Mus musculus, 480 h, 10 mg/kg (group 4), day 20, read-out: treatment/control ratio T/C (tumor weight)), the response vs control in vivo at 10 mg/kg was found to be 23%. The IC50 in data set [2] was determined as 140 nM; at CDK1/CycB, 3 nM; in data set [3], 9 nM.
